Assays:
Type in all cases: cell-based
[1] = tested on: OCI-AML-3; test: Cell viability (CellTiter-Glo), OCI-AML-3; conditions: Homo sapiens; OCI-AML-3 cell line, 3-4 days of culture
Experimental: (§1) Cell viability was detected using the Promega CellTiter-Glo kit, the kit reflected cell viability by directly measuring intracellular ATP content. The inhibitory effect (IC50 value) of Gboxin, a mitochondrial oxidative phosphorylation pathway inhibitor, on different tumor cell lines was tested in the Example. The name, source, and culture condition of each tumor cell line were as follows:
Cell line OCI-AML-3 (DSMZ, No. ACC-582) was cultured in 20% fetal bovine serum-containing RPMI1640 medium (+P/S).
(§2) The above tumor cells were cultured in the relevant medium (+P/S), and incubated for 3 h, then the gradient diluted Gboxin was added, and IC50 (50% inhibiting concentration) was measured after 3-4 days of culture.

[2] = tested on: DU 145; test: Cell viability (CellTiter-Glo), DU 145; conditions: Homo sapiens; DU 145 cell line, 3-4 days of culture
Experimental: as §1
Cell line DU 145 (ATCC, No. HTB-81) was cultured in 10% fetal bovine serum-containing EMEM medium (+P/S).
as §2

[3] = tested on: Daoy; test: Cell viability (CellTiter-Glo), Daoy; conditions: Homo sapiens; Daoy cell line, 3-4 days of culture
Experimental: as §1
Cell line Daoy (ATCC, No. HTB-186) was cultured in 10% fetal bovine serum-containing EMEM medium (+P/S).
as §2

[4] = tested on: GAK; test: Cell viability (CellTiter-Glo), GAK; conditions: GAK cell line, 3-4 days of culture
Experimental: as §1
Cell line GAK (JCRB, No. JCRB0180) was cultured in 20% fetal bovine serum-containing Ham's F12 medium (+P/S).
as §2

## CCc1n(CC(=O)O[C@@H]2C[C@H](C)CC[C@H]2C(C)C)c2ccccc2[n+]1C.[Cl-] [Gboxin]
[1]
  IC50: 1.46 µM
[2]
  IC50: 9.91 µM
[3]
  IC50: 9.72 µM
[4]
  IC50: 7.05 µM
